Measurements from PMC8402547, “In Vitro and In Vivo Analysis of Ochratoxin A-Derived Glucuronides and Mercapturic Acids as Biomarkers of Exposure” (Toxins, 2021).

Legend:
Format in all cases: in vivo, male F344/N rats
[1] = Direct LC–MS/MS analysis of OTA metabolites in urine of OTA-treated rats; details: OTA up to 2 mg/kg bw, negative ionization mode
Experimental: Archived urine samples from previous repeated dose oral toxicity studies on OTA in male F344/N rats were used. The studies were performed according to national animal welfare regulations after authorization by the local authorities (Regierung von Unterfranken, AZ 621-2531.01-9/98 and AZ 54-2531.01-59/05).
(§1) 14-day study: Male F344 rats (170–190 g) were purchased from Charles-River Laboratories, Sulzfeld, Germany. Animals had free access to water and standard diet (Altromin) and were kept under standard conditions (12 h day/night cycle, temperature 21–23 °C, humidity 45–55%). Rats were transferred to metabolic cages (Tecniplast Metabolic Cage—Rats Over 300 g; Tecniplast, Italy) for collection of urine 3 days prior to dosing. Animals were administered OTA dissolved in corn oil by oral gavage at 0, 0.25, 0.5, 1.0 and 2.0 mg/kg bw for 2 weeks (5 days per week). Urine was collected every 12 h on day 1 of treatment and every 24 h thereafter on ice, aliquoted and stored at −20 °C until further analysis.
(§2) 90-day study: Male F344/N rats (6–7 weeks old) were purchased from Harlan-Winkelmann, Borchen, Germany. Animals were housed in groups of 5 in Macrolon type-4 cages and allowed free access to pelleted standard rat maintenance diet (SSNIFF, Soest, Germany) and tap water. After a week of acclimatization, rats (n = 5/dose) were exposed to OTA dissolved in corn oil by oral gavage at doses of 0, 21, 70 or 210 µg/kg bw for 2, 4 or 13 weeks (5 days per week). For urine collection, animals were transferred into metabolic cages (Tecniplast Metabolic Cage—Rats Over 300 g; Tecniplast, Italy) 48 h prior to necropsy and fasted for 20 h but allowed free access to tap water. Urine was collected for 24 h on ice, aliquoted and stored at −20 °C until further analysis.
Urine samples were diluted with acetonitrile (2:1), vortexed and cleared via centrifugation (4 °C, 15 min., 2000× g) to precipitate proteins. Of the resulting supernatant, 10 µL were injected into the LC–MS system and analyzed using the method described below.
(§3) LC–MS/MS analyses were performed on an Agilent 1100 series LC coupled to an API 2000/Q-Trap mass spectrometer (Applied Biosystems/MDS Sciex, Concord, Canada). Samples were injected into the LC–MS/MS system through an Agilent 1100 series autosampler. Separations were carried out on a ReproSil-Pur C18 AQ column (2 mm × 150 mm, 5 µm; Dr. Maisch; Ammerbuch, Germany). Gradient elution of OTA-derived metabolites was carried out with water + 0.1% formic acid (solvent A) and acetonitrile (solvent B). Initially, solvent A was held isocratic for 5 min at 100%, followed by a linear gradient to 95% B in 5 min. These conditions were held for further 5 min. Within 1 min, the gradient decreased linearly to 0% B and remained at initial conditions until the end of analysis (30 min). A flow rate of 0.2 mL/min was used. For each run, 10 µL of the respective sample were injected by the autosampler.
(§4) The API 2000/Q-Trap mass spectrometer was operated with a Turbo Ion Spray source in negative ion mode with a voltage of −4000 V. Spectral data were recorded with N2 as the heater gas at 450 °C and as the collision gas (CAD = −2) in multiple reaction monitoring mode (MRM).
In addition to MRM, constant neutral loss of 129 amu in the negative ion mode based on the characteristic fragmentation pattern of mercapturic acids was used to screen for N-acetyl-cysteine conjugates of OTA. Furthermore, constant neutral loss of 176 amu in positive ion mode based on the fragmentation pattern of glucuronic acid conjugates was used to screen for OTA glucuronides.

[2] = 90-day rat study: 24 h urinary excretion of OTA and OTA-glucuronides, LC–MS/MS with and without β-glucuronidase hydrolysis; details: for Urinary excretion, fraction of the administered dose / Urinary excretion: 5 days/week; for Urinary excretion, fraction of the administered dose: 24 h urine
Experimental: as §2
(§5) Duplicate analysis of OTA in urine samples with and without enzymatic hydrolysis allowed for indirect measurement of glucuronides, whereby an increase in the concentration of OTA in the samples incubated with enzyme compared to those without enzymatic treatment reflected the hydrolyzed glucuronides. Aliquots of rat urine (125 µL) were mixed with 0.1 M sodium acetate (104 µL; pH = 5). For analysis of the concentration of OTA without enzymatic hydrolysis, an aliquot (30 µL) of this solution was removed and mixed with 7 µL acetonitrile. The remaining solution (199 µL) was incubated with β-glucuronidase (1.65 µL; <100,000 units/mL) at 37 °C for 1 h. Hydrolysis was terminated by addition of ice-cold acetonitrile (50 µL) and centrifugation (15 min., 4 °C, 20,000× g). To 98 µL supernatant, 2 µL isotopically labeled ^13C20-OTA in acetonitrile (14-day study: 5 µg/mL; 90-day study: 1 µg/mL) was added as an internal standard. For analysis, 10 µL of each sample were injected into the LC–MS system and analyzed using the method described below. A calibration curve was prepared from solutions of OTA and the isotopically labeled ^13C20-OTA internal standard in acetonitrile and subsequent dilution with urine of a control animal.
as §3, §4

[3] = 14-day rat study: 24 h urinary excretion of OTA and OTA-glucuronides, LC–MS/MS with and without β-glucuronidase hydrolysis; details: for Urinary excretion / Urinary excretion, fraction of the administered dose: 2 mg OTA/kg bw oral, 5 d/week; for Urinary excretion, fraction of the administered dose: 24 h urine
Experimental: as §1, §5, §3, §4

[4] = 4 weeks treatment, OTA 210 μg/kg bw per day oral, n = 1

## CC1Cc2c(Cl)cc(C(=O)NC(Cc3ccccc3)C(=O)OC3OC(C(=O)O)C(O)C(O)C3O)c(O)c2C(=O)O1 (centres unmarked) [OTA-Glucuronide]
[1]
  Detection in urine of OTA-treated rats by direct LC–MS/MS (MRM): failed
[2]; 2 weeks treatment, OTA 21 μg/kg bw per day oral
  Urinary excretion, fraction of the administered dose: 0.8%
[2]; 2 weeks treatment, OTA 21 μg/kg bw per day oral, mean ± SD
  Urinary excretion: 0.10 ± 0.02 nmol/24 h
[2]; 2 weeks treatment, OTA 70 μg/kg bw per day oral
  Urinary excretion, fraction of the administered dose: 0.6%
[2]; 2 weeks treatment, OTA 70 μg/kg bw per day oral, mean ± SD
  Urinary excretion: 0.23 ± 0.08 nmol/24 h
[2]; 2 weeks treatment, OTA 210 μg/kg bw per day oral
  Urinary excretion, fraction of the administered dose: 0.4%
[2]; 2 weeks treatment, OTA 210 μg/kg bw per day oral, mean ± SD
  Urinary excretion: 0.48 ± 0.36 nmol/24 h
[2]; 4 weeks treatment, OTA 21 μg/kg bw per day oral
  Urinary excretion, fraction of the administered dose: 0.7%
[2]; 4 weeks treatment, OTA 21 μg/kg bw per day oral, mean ± SD
  Urinary excretion: 0.08 ± 0.09 nmol/24 h
[2]; 4 weeks treatment, OTA 70 μg/kg bw per day oral
  Urinary excretion, fraction of the administered dose: 1.5%
[2]; 4 weeks treatment, OTA 70 μg/kg bw per day oral, mean ± SD
  Urinary excretion: 0.61 ± 0.67 nmol/24 h
[2]; [4]
  Urinary excretion, fraction of the administered dose: 0.2%
  Urinary excretion: 0.21 nmol/24 h
[2]; 13 weeks treatment, OTA 21 μg/kg bw per day oral
  Urinary excretion, fraction of the administered dose: 0.2%
[2]; 13 weeks treatment, OTA 21 μg/kg bw per day oral, mean ± SD
  Urinary excretion: 0.03 ± 0.00 nmol/24 h
[2]; 13 weeks treatment, OTA 70 μg/kg bw per day oral
  Urinary excretion, fraction of the administered dose: 1.7%
[2]; 13 weeks treatment, OTA 70 μg/kg bw per day oral, mean ± SD
  Urinary excretion: 0.85 ± 0.74 nmol/24 h
[2]; 13 weeks treatment, OTA 210 μg/kg bw per day oral
  Urinary excretion, fraction of the administered dose: 1.1%
[2]; 13 weeks treatment, OTA 210 μg/kg bw per day oral, mean ± SD
  Urinary excretion: 1.72 ± 1.53 nmol/24 h
[2]; OTA 0, 21, 70, 210 μg/kg bw, 2, 4 and 13 weeks
  Relationship between OTA dose and urinary excretion (Pearson correlation): linear relationship
[2]; male rats, indirect analysis, summary statement in discussion
  Excretion in male rat urine, % of the orally administered dose: less than 2%
[2]; range over 90-day study, OTA 21, 70 and 210 µg/kg (5 days/week)
  Fraction of the administered dose excreted in urine: 0.2 to 1.7%
[3]; animal 2, day 3 of treatment
  Urinary excretion: 0.6 nmol/24 h
  Urinary excretion, fraction of the administered dose: 0.1%
[3]; animal 2, day 5 of treatment
  Urinary excretion: 7.0 nmol/24 h
  Urinary excretion, fraction of the administered dose: 0.8%
[3]; animal 2, day 7 of treatment
  Urinary excretion: 0.7 nmol/24 h
  Urinary excretion, fraction of the administered dose: 0.1%
[3]; animal 2, day 9 of treatment
  Urinary excretion: 12.2 nmol/24 h
  Urinary excretion, fraction of the administered dose: 1.4%
[3]; animal 2, day 11 of treatment
  Urinary excretion: 3.1 nmol/24 h
  Urinary excretion, fraction of the administered dose: 0.4%
[3]; animal 2, day 13 of treatment
  Urinary excretion: 3.4 nmol/24 h
  Urinary excretion, fraction of the administered dose: 0.4%
[3]; animal 3, day 3 of treatment
  Urinary excretion: 1.5 nmol/24 h
  Urinary excretion, fraction of the administered dose: 0.2%
[3]; animal 3, day 5 of treatment
  Urinary excretion: 1.6 nmol/24 h
  Urinary excretion, fraction of the administered dose: 0.3%
[3]; animal 3, day 7 of treatment
  Urinary excretion: 22.0 nmol/24 h
  Urinary excretion, fraction of the administered dose: 2.4%
[3]; animal 3, day 9 of treatment
  Urinary excretion: 16.9 nmol/24 h
  Urinary excretion, fraction of the administered dose: 1.9%
[3]; animal 3, day 11 of treatment
  Urinary excretion: 22.5 nmol/24 h
  Urinary excretion, fraction of the administered dose: 2.5%
[3]; animal 3, day 13 of treatment
  Urinary excretion: 6.384 nmol/24 h
  Urinary excretion, fraction of the administered dose: 0.7%
[3]; range over the course of the study, OTA 2 mg/kg bw for 2 weeks (5 days/week)
  24 h urinary excretion, % of the daily administered dose: 0.1–2.5%
